In patent publication US12252524B2, “GIP/GLP1 co-agonist compounds” (Eli Lilly and Company, priority 2018, dated 2025):
Numbered stars: 1 amine (or outer) side, 2 acyl side, 3 side chain; on linkers, the order of the positions; unused ones are H or OH. Square brackets hold non-standard residues; d marks the D form. Side chains are listed from the residue outwards. Peptide text beside a SMILES is read from it. * marks the point of attachment. C20 diacid = O=C(O)CCCCCCCCCCCCCCCCCCC(=O)*; γGlu = O=C(O)[C@H](CCC(=O)[*:2])N[*:1]; αMeL = CC(C)C[C@](C)(N)C(=O)O; AEEA = NCCOCCOCC(=O)O; Aib = CC(C)(N)C(=O)O

Experiments:
[1] = target: T1, human Gcg receptor (Homo sapiens, UniProt P47871); assay: [125I]-Glucagon binding (SPA), human Gcg receptor; conditions: read-out: hGLcgR Ki, nM (SEM, n)
T1 construct: expressed in transfected cells; crude membranes
Outline: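 Scintillation counts are taken after membranes and WGA beads incubate and settle for 12 hours at room temperature. Buffer is 25 mM HEPES, pH 7.4, with CaCl2, MgCl2, bacitracin and Tween-20. Ki values, from four-parameter IC50 fits, are geometric means over independent days.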

[2] = target: T2, human GIP receptor (Homo sapiens, UniProt P48546); assay: [125I]-GIP binding (SPA), human GIP receptor; conditions: read-out: hGIPR Ki, nM (SEM, n)
T2 construct: expressed in transfected cells; crude membranes
T2 sequence (P48546 22-466): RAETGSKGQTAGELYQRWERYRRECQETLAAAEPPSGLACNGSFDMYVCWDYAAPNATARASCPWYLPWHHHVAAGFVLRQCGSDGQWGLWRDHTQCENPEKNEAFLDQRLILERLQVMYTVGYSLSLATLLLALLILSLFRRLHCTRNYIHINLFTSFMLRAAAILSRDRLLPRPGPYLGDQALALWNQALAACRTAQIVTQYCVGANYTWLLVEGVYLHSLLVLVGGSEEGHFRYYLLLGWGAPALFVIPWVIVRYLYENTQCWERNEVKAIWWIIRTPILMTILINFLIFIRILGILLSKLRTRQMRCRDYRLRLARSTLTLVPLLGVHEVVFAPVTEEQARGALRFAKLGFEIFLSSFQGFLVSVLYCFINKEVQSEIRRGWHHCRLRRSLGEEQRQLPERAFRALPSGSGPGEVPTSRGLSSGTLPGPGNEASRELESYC

[3] = target: human GLP-1 receptor (GLP-1R) (Homo sapiens, UniProt P43220); assay: cAMP pharmacological functional assay in presence of casein, hGLP-1R; assay type: cell-based; conditions: HEK293 cells expressing hGLP-1R, 0.1% Casein, geometric mean; read-out: hGLP1R cAMP Rel EC50 nM (SEM, n)
[4] = target: T3, gastric inhibitory peptide receptor (GIPR) (Homo sapiens, UniProt P48546); assay: cAMP pharmacological functional assay in presence of casein, hGIPR; assay type: cell-based; conditions: HEK293 cells expressing hGIPR, 0.1% Casein, geometric mean; read-out: hGIPR cAMP Rel EC50 nM (SEM, n)
T3 sequence (P48546 22-466): T2 sequence (P48546 22-466)

[5] = target: T4, human GLP-1R (Homo sapiens, UniProt P43220); assay: [125I]-GLP-1 binding (SPA), human GLP-1 receptor; set-up: expressed in transfected cells; crude membranes; conditions: read-out: hGLP1R Ki, (nM) (SEM, n)
Outline: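 Frozen cell pellets are lysed on ice in hypotonic Tris buffer, pH 7.5, homogenized, and centrifuged to a membrane pellet resuspended at about 1 to 3 mg/mL. Binding is then measured in HEPES-based buffer at pH 7.4, and curves are fitted to give IC50 and Ki.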

[6] = target: T4, human GLP-1R; assay: GLP-1R CHO cell β-arrestin recruitment assay; assay type: cell-based; set-up: host or cells: CHO-K1 PathHunter cells, assay-ready frozen; conditions: for EC50: CHO-K1 cells, PathHunter β-arrestin-2 recruitment, 0.1% casein, read-out: hGLP1R B-Arrestin2 Rel EC50 uM (SEM, n); for hGLP1R B-Arrestin2 % Top: normalized to GLP-1 maximum control
Outline: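 PathHunter CHO-K1 cells with ProLink-tagged human GLP-1R and enzyme-acceptor-tagged β-arrestin-2 treated with serially diluted peptides in assay buffer containing 0.1% hydrolyzed casein, 90 min at 37 °C.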

[7] = target: T4, human GLP-1R; assay: GLP-1R HEK293 cell membrane [35S]GTPγS binding assay; assay type: biochemical; set-up: expressed in transfected cells; host or cells: HEK293 cells expressing human GLP-1R; membranes; conditions: HEK293 cell membranes expressing human GLP-1R, [35S]GTPγS binding; read-out: hGLP1R GTPgS Rel EC50 nM (SEM, n)
Outline: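 Membranes from HEK293 cells expressing the receptor incubated with peptide and […] [35S]GTPγS in HEPES pH 7.4 buffer with NaCl, MgCl2, saponin and BSA, 30 min at room temperature. Gαs-bound label captured by anti-Gαs antibody/SPA beads and counted; EC50 from four-parameter logistic fit.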

T1 sequence (P47871 26-477): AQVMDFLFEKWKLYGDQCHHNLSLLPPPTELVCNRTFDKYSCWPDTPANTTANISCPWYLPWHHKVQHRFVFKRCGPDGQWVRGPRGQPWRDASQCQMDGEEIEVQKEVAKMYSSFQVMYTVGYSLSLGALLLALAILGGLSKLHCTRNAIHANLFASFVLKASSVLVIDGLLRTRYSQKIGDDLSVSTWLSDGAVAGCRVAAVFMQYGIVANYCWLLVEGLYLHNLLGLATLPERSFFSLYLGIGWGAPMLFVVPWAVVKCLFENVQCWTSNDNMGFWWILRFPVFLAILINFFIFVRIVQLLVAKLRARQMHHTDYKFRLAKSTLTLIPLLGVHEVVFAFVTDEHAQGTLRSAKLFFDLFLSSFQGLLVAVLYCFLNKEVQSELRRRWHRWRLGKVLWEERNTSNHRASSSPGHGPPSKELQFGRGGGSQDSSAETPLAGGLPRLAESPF
T4 sequence (P43220 24-463): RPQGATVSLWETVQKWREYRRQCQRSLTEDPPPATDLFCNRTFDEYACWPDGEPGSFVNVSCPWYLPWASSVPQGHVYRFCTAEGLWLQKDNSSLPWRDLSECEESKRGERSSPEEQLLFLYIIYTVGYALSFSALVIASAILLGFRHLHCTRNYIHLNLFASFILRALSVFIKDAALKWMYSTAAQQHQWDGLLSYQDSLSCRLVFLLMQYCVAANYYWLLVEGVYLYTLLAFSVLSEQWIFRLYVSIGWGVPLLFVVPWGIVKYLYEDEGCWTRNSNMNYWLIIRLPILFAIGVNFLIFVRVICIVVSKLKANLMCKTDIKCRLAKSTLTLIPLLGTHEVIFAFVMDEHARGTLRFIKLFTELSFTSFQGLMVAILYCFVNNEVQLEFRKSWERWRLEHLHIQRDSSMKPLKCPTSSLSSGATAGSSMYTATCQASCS
human GLP-1 receptor (GLP-1R), sequence (P43220 24-463): as above

Structure (SMILES): CC[C@H](C)[C@H](NC(=O)[C@H](CC(C)C)NC(=O)[C@H](Cc1ccc(O)cc1)NC(=O)[C@H](CCC(=O)O)NC(=O)[C@@H](NC(=O)[C@H](Cc1ccccc1)NC(=O)[C@H](C)NC(=O)C(C)(C)NC(=O)[C@H](CCC(N)=O)NC(=O)[C@H](C)NC(=O)[C@H](CCCCNC(=O)COCCOCCNC(=O)COCCOCCNC(=O)CC[C@H](NC(=O)CCCCCCCCCCCCCCCCCCC(=O)O)C(=O)O)NC(=O)[C@H](CCCCN)NC(=O)[C@H](CC(=O)O)NC(=O)[C@H](CC(C)C)NC(=O)[C@](C)(CC(C)C)NC(=O)[C@@H](NC(=O)[C@H](CO)NC(=O)[C@H](Cc1ccc(O)cc1)NC(=O)[C@H](CC(=O)O)NC(=O)[C@H](CO)NC(=O)[C@@H](NC(=O)[C@H](Cc1ccccc1)NC(=O)[C@@H](NC(=O)CNC(=O)[C@H](CCC(=O)O)NC(=O)C(C)(C)NC(=O)[C@@H](N)Cc1ccccc1)[C@@H](C)O)[C@@H](C)O)[C@@H](C)CC)[C@@H](C)CC)C(=O)N[C@@H](C)C(=O)NCC(=O)NCC(=O)N1CCC[C@H]1C(=O)N[C@@H](CO)C(=O)N[C@@H](CO)C(=O)NCC(=O)N[C@@H](C)C(=O)N1CCC[C@H]1C(=O)N1CCC[C@H]1C(=O)N1CCC[C@H]1C(=O)N[C@@H](CO)C(N)=O [Example 337] (H-F[Aib]EGTFTSDYSI[αMeL]LDKK([AEEA-AEEA-γGlu-C20 diacid])AQ[Aib]AFIEYLIAGGPSSGAPPPS-NH2)
- Ki [1]: 335 nM
- Ki [2]: 0.0363 nM
- EC50 [3]: 0.173 nM
- EC50 [4]: 0.0515 nM
- Ki [5]: 1.61 nM
- EC50 [6]: 0.0174 µM
- hGLP1R B-Arrestin2 % Top [6]: 34.1%
- EC50 [7]: 0.322 nM

Structure (SMILES): CC[C@H](C)[C@H](NC(=O)[C@H](CC(C)C)NC(=O)[C@H](Cc1ccc(O)cc1)NC(=O)[C@H](CCC(=O)O)NC(=O)[C@@H](NC(=O)[C@H](Cc1ccccc1)NC(=O)[C@H](CCC(=O)O)NC(=O)C(C)(C)NC(=O)[C@H](CCC(N)=O)NC(=O)[C@H](C)NC(=O)[C@H](CCCCNC(=O)COCCOCCNC(=O)CC[C@H](NC(=O)CCCCCCCCCCCCCCCCCCC(=O)O)C(=O)O)NC(=O)[C@H](CCCCN)NC(=O)[C@H](CC(=O)O)NC(=O)[C@H](CC(C)C)NC(=O)[C@](C)(CC(C)C)NC(=O)[C@@H](NC(=O)[C@H](CO)NC(=O)[C@H](Cc1ccc(O)cc1)NC(=O)[C@H](CC(=O)O)NC(=O)[C@H](CO)NC(=O)[C@@H](NC(=O)[C@H](Cc1ccccc1)NC(=O)[C@@H](NC(=O)CNC(=O)[C@H](CCC(=O)O)NC(=O)C(C)(C)NC(=O)[C@@H](N)Cc1ccc(O)cc1)[C@@H](C)O)[C@@H](C)O)[C@@H](C)CC)[C@@H](C)CC)C(=O)N[C@@H](C)C(=O)NCC(=O)NCC(=O)N1CCC[C@H]1C(=O)N[C@@H](CO)C(=O)N[C@@H](CO)C(=O)NCC(=O)N[C@@H](C)C(=O)N1CCC[C@H]1C(=O)N1CCC[C@H]1C(=O)N1CCC[C@H]1C(=O)N[C@@H](CO)C(N)=O [Example 339] (H-Y[Aib]EGTFTSDYSI[αMeL]LDKK([AEEA-γGlu-C20 diacid])AQ[Aib]EFIEYLIAGGPSSGAPPPS-NH2)
- Ki [1]: 873 nM
- Ki [2]: 0.0388 nM
- EC50 [3]: 0.0986 nM
- EC50 [4]: 0.0219 nM
- Ki [5]: 2.69 nM
- EC50 [6]: 0.0107 µM
- hGLP1R B-Arrestin2 % Top [6]: 44.0%
- EC50 [7]: 0.326 nM

Structure (SMILES): CC[C@H](C)[C@H](NC(=O)[C@H](CC(C)C)NC(=O)[C@H](Cc1ccc(O)cc1)NC(=O)[C@H](CCC(=O)O)NC(=O)[C@@H](NC(=O)[C@H](Cc1ccccc1)NC(=O)[C@H](C)NC(=O)C(C)(C)NC(=O)[C@H](CCC(N)=O)NC(=O)[C@H](C)NC(=O)[C@H](CCCCNC(=O)COCCOCCNC(=O)COCCOCCNC(=O)CC[C@H](NC(=O)CCCCCCCCCCCCCCCCCCC(=O)O)C(=O)O)NC(=O)[C@H](CCCCN)NC(=O)[C@H](CC(=O)O)NC(=O)[C@H](CC(C)C)NC(=O)[C@](C)(CC(C)C)NC(=O)[C@@H](NC(=O)[C@H](CO)NC(=O)[C@H](Cc1ccc(O)cc1)NC(=O)[C@H](CC(=O)O)NC(=O)[C@H](CO)NC(=O)[C@@H](NC(=O)[C@H](Cc1ccccc1)NC(=O)[C@@H](NC(=O)CNC(=O)[C@H](CCC(=O)O)NC(=O)C(C)(C)NC(=O)[C@H](N)Cc1ccc(O)cc1)[C@@H](C)O)[C@@H](C)O)[C@@H](C)CC)[C@@H](C)CC)C(=O)N[C@@H](C)C(=O)NCC(=O)NCC(=O)N1CCC[C@H]1C(=O)N[C@@H](CO)C(=O)N[C@@H](CO)C(=O)NCC(=O)N[C@@H](C)C(=O)N1CCC[C@H]1C(=O)N1CCC[C@H]1C(=O)N1CCC[C@H]1C(=O)N[C@@H](CO)C(N)=O [Example 340] (H-[dY][Aib]EGTFTSDYSI[αMeL]LDKK([AEEA-AEEA-γGlu-C20 diacid])AQ[Aib]AFIEYLIAGGPSSGAPPPS-NH2)
- Ki [1]: 250 nM
- Ki [2]: 0.0507 nM
- EC50 [3]: 0.252 nM
- EC50 [4]: 0.0823 nM
- Ki [5]: 2.08 nM
- EC50 [6]: 0.0107 µM
- hGLP1R B-Arrestin2 % Top [6]: 20.1%
- EC50 [7]: 0.45 nM
